The record followed here is patent US20210393549A1, “New use of R-enantiomer of adrenergic beta 2 receptor agonists for treatment of inflammatory bowel disease and its extra intestinal manifestations” (priority 2018, published 2021).

Assay [1] has as its system DSS induced sub-acute colitis. It is filed as in vivo. On the set-up: DAI (disease active index) / FOB (fecal occult blood) / Hist score (histological score): scale not given here; Weight / Col Length (colon length): unit not given here. The source says: This invention also disclosed the used of R-salbutamol for treatment of sub acute or chronic phases of IBD. In one embodiment, IBD was induced by DSS as mentioned above, along with the treatment of R-salbutamol, at day 7th, DSS was removed and replaced with drinking water for additional 2 weeks. The disease active index (DAI) of mice was examined and evaluated periodically. The mice were scarified for pathological and histological evaluations at day of 23rd. In DSS induce IBD mice, there were significant loss of weight and fecal occult blood at day 14th and 22nd. The overall condition of colitis was severe although there was slightly improvement comparing the day 7th. The colon-rector length was significant shortened, and histological score were significant higher from control. In mice with DSS induced colitis, there were significant mononuclear leucocytes infiltration, few newly grew crypts with architectural disarray, denegation of epithelia, mucosa aberrant. There was also deep mucosal lymphocytosis, destruction of lamina propria and sometimes, transmural inflammation.
Same as example 1, except • 1), Three weeks' study with one week treatment.
DSS and all the treatment was removed and replaced with drinking water at the end of 1st week. Mice were given drink water and food ad libitum for additional 2 weeks.

The test system of assay [2] is DSS induced sub-acute colitis. Description: Prolonged (two weeks) treatment in DSS induced sub-acute colitis. It is filed as in vivo, mice. Particulars: evaluation at 23rd day, salbutamol 1 mg/kg, bambuterol 10 mg/kg. The source says:
Same as example 2, except. 1), Two Weeks Treatment within a Three Weeks of Study
DSS was removed from drinking water at the end of 1st week. The treatments were started at 1st day for consecutive 14 days (2 weeks). Only drinking water given for the 3rd week. The evaluation and examination were made at 23rd day as did in example 1.

Assay [3] has as its system knee joints (articular cartilage, meniscus). Description: Damage of knee joints in DSS induced IBD mice. The format is in vivo. The note with it: compared with untreated DSS mice. The source says: In one embodiment, in DSS induced IBD mice, there was also a damage of knee joints. The articular cartilage structure became thinner and partially destroyed. The chondrocytes were degenerated, decreased and clustered. The meniscuses were damaged and lost its structural integrity. In X-ray, the layer of articular cartilage was thinner and bone structure was decreased. […] The articular cartilage and bone structure increased toward normal.

A further assay relates to Janus kinase 2 (JAK2). The assay is described as follows: JAK2 mRNA expression in psoriasis mice. It is filed as in vivo. Particulars: plasma of psoriasis mice, dose-response fashion. The source says:
There was enhanced expression of mRNA of Janus kinase 2 (JAK2), a non-receptor tyrosine kinase, and the signal transducer and activator of transcription protein (Stat 2) in the plasma of psoriasis mice in comparison of control, Indicating an increase of JAK2 and Stat 2 proteins. These over expression of mRNA was inhibited by R-salbutamol in a dose-response fashion. (FIG. 3 left & right)

Where [4] appears, read: one week treatment, evaluation at 23rd day, R-S, S-S 1 mg/kg, R-B, S-B 10 mg/kg.
The mark [5] stands for this setting: sub-acute or chronic DSS colitis, compared with untreated DSS mice.

Where two headings read alike, the source gives them in different places.

As to `CC(C)(C)NC[C@H](O)c1ccc(O)c(CO)c1` [R-S, R-salbutamol], in assay [1] (setting [4]), the “Col Length (colon length)” value was 8.2 ± 0.6, the “DAI (disease active index)” value was 4, the “FOB (fecal occult blood)” value was 0.5 ± 0.5 and the “Hist score (histological score)” value worked out at 3 ± 0.5. Further, the Weight in assay [1] (setting [4]) came to 114 ± 0.2. For the same compound, in assay [1] (setting [5]), the “DAI, in words” value is “significant improved” and the “histological index / histological score, in words” value is listed as “significantly ameliorated”. For the same compound, the “fecal occult blood, in words” value in assay [1] (sub-acute or chronic DSS colitis, day 14th and 22nd, compared with untreated DSS mice) is on record as “significantly reduced”. In addition, in assay [2], the “DAI, in words” value is recorded as “return toward normal” and the “histological score, in words” value was “return toward normal”. For the same compound, in assay [3], the “damage of articular cartilage, meniscus and bone structure of knee joints” value is listed as “significantly ameliorated”. Besides, in the assay on Janus kinase 2 (JAK2), the “over expression of mRNA of JAK2” value is “inhibited”.
